Results from the kinase profiling compilation of Christmann-Franck et al. (2016).
Values belong to the compound of their own block, whether it stands above or below them.

Columns and labels:
TTK (human) [1] = target: TTK (human) (UniProt P33981); assay: SelectScreen, TR FRET
TTK (human) [2] = target: TTK (human) (UniProt P33981); assay: KINOMEscan competition binding; conditions: for kinase still bound, per cent of control: compound 10.0 µM
[3] = target: TYK2 JH2 pseudokinase (human) (UniProt P29597); assay: KINOMEscan competition binding; conditions: compound 10.0 µM
SRPK3 (human) = SRPK3 (human) (UniProt Q9UPE1); assay: KINOMEscan competition binding; conditions: compound 10.0 µM
PIM3 (human) = PIM3 (human) (UniProt Q86V86); assay: KINOMEscan competition binding; conditions: compound 10.0 µM
STK17A (human) = STK17A (human) (UniProt Q9UEE5); assay: KINOMEscan competition binding; conditions: compound 10.0 µM
RIOK1 (human) = RIOK1 (human) (UniProt Q9BRS2); assay: KINOMEscan competition binding; conditions: compound 10.0 µM
CLK2 (human) = CLK2 (human) (UniProt P49760); assay: KINOMEscan competition binding; conditions: compound 10.0 µM
SRPK1 (human) = SRPK1 (human) (UniProt Q96SB4); assay: KINOMEscan competition binding; conditions: compound 10.0 µM
AAK1 (human) = AAK1 (human) (UniProt Q2M2I8); assay: KINOMEscan competition binding; conditions: compound 10.0 µM
MYLK4 (human) = MYLK4 (human) (UniProt Q86YV6); assay: KINOMEscan competition binding; conditions: compound 10.0 µM
BMP2K (human) = BMP2K (human) (UniProt Q9NSY1); assay: KINOMEscan competition binding; conditions: compound 10.0 µM
RIOK3 (human) = RIOK3 (human) (UniProt O14730); assay: KINOMEscan competition binding; conditions: compound 10.0 µM
MKNK2 (human) = MKNK2 (human) (UniProt Q9HBH9); assay: KINOMEscan competition binding; conditions: compound 10.0 µM
PIM1 (human) = PIM1 (human) (UniProt P11309); assay: SelectScreen, TR FRET
PIM2 (human) = PIM2 (human) (UniProt Q9P1W9); assay: SelectScreen, TR FRET
PLK1 (human) = PLK1 (human) (UniProt P53350); assay: KINOMEscan competition binding; conditions: compound 10.0 µM
RPS6KA2 KD2 (human) = RPS6KA2 KD2 (human) (UniProt Q15349); assay: KINOMEscan competition binding; conditions: compound 10.0 µM
TNK1 (human) = TNK1 (human) (UniProt Q13470); assay: KINOMEscan competition binding; conditions: compound 10.0 µM
PTK2B (human) = PTK2B (human) (UniProt Q14289); assay: KINOMEscan competition binding; conditions: compound 10.0 µM
PLK4 (human) = PLK4 (human) (UniProt O00444); assay: KINOMEscan competition binding; conditions: compound 10.0 µM
STK33 (human) = STK33 (human) (UniProt Q9BYT3); assay: KINOMEscan competition binding; conditions: compound 10.0 µM
GAK (human) = GAK (human) (UniProt O14976); assay: KINOMEscan competition binding; conditions: compound 10.0 µM
PLK3 (human) = PLK3 (human) (UniProt Q9H4B4); assay: KINOMEscan competition binding; conditions: compound 10.0 µM
PTK2 (human) = PTK2 (human) (UniProt Q05397); assay: KINOMEscan competition binding; conditions: compound 10.0 µM
[4] = system: ABL1 (human), P00519 [F317I]; assay: KINOMEscan competition binding; conditions: compound 10.0 µM
DCLK2 (human) = DCLK2 (human) (UniProt Q8N568); assay: KINOMEscan competition binding; conditions: compound 10.0 µM
MAPK7 (human) = MAPK7 (human) (UniProt Q13164); assay: KINOMEscan competition binding; conditions: compound 10.0 µM
ALK (human) = ALK (human) (UniProt Q9UM73); assay: KINOMEscan competition binding; conditions: compound 10.0 µM
TNK2 (human) = TNK2 (human) (UniProt Q07912); assay: KINOMEscan competition binding; conditions: compound 10.0 µM
FRK (human) = FRK (human) (UniProt P42685); assay: KINOMEscan competition binding; conditions: compound 10.0 µM
DCLK1 (human) = DCLK1 (human) (UniProt O15075); assay: KINOMEscan competition binding; conditions: compound 10.0 µM
ROS1 (human) = ROS1 (human) (UniProt P08922); assay: KINOMEscan competition binding; conditions: compound 10.0 µM
ULK2 (human) = ULK2 (human) (UniProt Q8IYT8); assay: KINOMEscan competition binding; conditions: compound 10.0 µM

Chain of TTK (human) (P33981 whole entry, looked up): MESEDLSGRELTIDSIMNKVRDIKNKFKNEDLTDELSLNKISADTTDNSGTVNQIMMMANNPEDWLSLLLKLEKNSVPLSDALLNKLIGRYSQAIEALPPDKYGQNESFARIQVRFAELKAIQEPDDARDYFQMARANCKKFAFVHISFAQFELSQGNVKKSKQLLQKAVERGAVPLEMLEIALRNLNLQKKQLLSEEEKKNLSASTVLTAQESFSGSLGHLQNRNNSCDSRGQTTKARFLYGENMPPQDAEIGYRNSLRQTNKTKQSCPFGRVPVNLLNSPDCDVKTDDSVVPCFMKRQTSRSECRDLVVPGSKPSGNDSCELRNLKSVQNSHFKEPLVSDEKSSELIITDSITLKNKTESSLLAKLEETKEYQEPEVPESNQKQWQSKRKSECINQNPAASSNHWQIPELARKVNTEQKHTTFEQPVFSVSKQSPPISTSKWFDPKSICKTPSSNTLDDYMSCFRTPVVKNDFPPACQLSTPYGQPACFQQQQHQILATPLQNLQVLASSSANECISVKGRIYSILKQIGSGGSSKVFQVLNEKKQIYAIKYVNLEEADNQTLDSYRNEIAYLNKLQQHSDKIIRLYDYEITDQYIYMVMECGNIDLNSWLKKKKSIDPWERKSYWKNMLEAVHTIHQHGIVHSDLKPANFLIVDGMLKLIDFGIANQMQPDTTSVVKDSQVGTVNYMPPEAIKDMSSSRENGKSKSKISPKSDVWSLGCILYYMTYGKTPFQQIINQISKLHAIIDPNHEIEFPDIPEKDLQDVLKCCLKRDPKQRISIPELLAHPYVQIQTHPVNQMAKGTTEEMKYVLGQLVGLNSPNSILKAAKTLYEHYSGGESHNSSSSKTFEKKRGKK
Chain of PLK1 (human) (P53350 whole entry, looked up): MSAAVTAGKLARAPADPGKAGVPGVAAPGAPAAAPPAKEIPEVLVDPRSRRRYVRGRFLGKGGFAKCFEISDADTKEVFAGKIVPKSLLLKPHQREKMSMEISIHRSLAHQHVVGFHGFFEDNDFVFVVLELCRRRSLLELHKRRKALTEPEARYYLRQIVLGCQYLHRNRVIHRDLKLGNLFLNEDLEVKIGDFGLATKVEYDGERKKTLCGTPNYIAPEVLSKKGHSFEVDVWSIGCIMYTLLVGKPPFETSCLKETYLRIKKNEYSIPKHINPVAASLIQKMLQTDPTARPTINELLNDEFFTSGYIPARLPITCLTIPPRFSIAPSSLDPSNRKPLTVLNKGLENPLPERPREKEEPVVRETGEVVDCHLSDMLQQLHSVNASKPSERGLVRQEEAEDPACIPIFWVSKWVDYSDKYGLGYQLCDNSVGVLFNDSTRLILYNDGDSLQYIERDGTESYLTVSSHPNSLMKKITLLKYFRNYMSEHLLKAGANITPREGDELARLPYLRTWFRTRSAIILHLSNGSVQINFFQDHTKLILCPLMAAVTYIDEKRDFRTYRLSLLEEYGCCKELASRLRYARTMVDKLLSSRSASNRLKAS
Chain of TNK1 (human) (Q13470 whole entry, looked up): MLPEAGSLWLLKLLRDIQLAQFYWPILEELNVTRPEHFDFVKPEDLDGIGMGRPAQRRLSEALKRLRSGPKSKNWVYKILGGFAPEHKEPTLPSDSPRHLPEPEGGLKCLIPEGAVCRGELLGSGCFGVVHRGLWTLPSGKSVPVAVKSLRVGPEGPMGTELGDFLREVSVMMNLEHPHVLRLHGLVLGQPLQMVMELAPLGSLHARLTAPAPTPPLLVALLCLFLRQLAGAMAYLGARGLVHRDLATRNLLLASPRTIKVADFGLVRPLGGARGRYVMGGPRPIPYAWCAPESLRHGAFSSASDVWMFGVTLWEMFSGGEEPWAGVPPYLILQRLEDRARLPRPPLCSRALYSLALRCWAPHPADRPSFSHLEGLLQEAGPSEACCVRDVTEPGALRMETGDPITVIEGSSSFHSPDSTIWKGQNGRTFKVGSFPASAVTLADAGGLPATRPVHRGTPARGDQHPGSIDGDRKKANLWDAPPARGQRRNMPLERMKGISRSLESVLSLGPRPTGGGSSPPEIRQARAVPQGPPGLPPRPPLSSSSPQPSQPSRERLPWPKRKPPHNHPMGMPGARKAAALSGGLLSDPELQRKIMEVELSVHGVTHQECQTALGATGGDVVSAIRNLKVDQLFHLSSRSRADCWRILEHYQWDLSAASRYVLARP
Chain of PLK4 (human) (O00444 whole entry, looked up): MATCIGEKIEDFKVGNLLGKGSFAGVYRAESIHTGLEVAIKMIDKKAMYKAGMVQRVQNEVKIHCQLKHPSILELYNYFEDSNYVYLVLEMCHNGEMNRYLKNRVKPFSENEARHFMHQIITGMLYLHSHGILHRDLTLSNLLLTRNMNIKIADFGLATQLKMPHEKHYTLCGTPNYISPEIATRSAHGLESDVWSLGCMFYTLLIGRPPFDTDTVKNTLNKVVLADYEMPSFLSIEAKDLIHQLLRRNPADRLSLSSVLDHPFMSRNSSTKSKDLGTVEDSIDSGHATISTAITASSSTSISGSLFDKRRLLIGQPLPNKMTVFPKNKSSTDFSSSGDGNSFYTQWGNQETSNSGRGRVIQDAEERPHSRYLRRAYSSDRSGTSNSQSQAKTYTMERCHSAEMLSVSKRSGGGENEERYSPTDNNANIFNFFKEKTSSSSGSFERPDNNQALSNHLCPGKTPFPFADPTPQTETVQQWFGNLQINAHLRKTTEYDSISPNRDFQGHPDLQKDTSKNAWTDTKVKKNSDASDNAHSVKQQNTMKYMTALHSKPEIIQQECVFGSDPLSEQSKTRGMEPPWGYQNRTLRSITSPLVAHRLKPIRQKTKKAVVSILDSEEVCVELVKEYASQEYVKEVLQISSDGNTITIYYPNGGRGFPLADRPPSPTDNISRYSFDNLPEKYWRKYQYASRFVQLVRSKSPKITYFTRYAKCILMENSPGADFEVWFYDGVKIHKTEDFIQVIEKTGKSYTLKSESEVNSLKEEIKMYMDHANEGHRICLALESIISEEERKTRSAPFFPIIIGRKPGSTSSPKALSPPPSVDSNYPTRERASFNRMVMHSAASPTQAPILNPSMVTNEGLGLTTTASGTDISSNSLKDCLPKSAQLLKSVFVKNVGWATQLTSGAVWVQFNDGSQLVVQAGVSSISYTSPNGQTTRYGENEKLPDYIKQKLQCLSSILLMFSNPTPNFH
Chain of PTK2 (human) (Q05397 whole entry, looked up): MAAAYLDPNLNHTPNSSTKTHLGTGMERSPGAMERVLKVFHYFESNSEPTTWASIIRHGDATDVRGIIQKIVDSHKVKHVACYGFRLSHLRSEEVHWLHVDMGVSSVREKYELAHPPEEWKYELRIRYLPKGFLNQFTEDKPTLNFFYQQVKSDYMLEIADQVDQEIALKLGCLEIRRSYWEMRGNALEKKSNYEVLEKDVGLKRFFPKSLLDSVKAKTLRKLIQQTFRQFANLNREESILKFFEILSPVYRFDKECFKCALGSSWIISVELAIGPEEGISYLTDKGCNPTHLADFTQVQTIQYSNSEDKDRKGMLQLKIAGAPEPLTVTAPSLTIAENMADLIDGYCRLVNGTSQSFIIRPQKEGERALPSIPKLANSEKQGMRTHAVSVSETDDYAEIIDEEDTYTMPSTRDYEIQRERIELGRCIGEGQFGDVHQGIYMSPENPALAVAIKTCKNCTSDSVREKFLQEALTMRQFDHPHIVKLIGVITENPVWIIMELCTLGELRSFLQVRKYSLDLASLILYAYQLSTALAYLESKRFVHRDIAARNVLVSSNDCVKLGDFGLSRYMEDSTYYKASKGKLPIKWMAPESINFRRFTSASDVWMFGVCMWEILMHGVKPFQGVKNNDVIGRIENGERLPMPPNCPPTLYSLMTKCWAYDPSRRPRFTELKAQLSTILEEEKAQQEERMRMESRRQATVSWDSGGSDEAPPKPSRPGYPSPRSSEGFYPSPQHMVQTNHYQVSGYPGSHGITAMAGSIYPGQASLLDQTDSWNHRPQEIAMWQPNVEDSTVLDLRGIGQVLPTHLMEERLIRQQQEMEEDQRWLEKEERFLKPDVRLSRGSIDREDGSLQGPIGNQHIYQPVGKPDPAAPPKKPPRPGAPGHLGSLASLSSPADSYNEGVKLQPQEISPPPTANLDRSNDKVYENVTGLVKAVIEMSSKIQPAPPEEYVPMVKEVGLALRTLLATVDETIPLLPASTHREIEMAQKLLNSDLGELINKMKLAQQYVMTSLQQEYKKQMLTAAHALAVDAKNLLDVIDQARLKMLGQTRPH
Chain of SRPK1 (human) (Q96SB4 whole entry, looked up): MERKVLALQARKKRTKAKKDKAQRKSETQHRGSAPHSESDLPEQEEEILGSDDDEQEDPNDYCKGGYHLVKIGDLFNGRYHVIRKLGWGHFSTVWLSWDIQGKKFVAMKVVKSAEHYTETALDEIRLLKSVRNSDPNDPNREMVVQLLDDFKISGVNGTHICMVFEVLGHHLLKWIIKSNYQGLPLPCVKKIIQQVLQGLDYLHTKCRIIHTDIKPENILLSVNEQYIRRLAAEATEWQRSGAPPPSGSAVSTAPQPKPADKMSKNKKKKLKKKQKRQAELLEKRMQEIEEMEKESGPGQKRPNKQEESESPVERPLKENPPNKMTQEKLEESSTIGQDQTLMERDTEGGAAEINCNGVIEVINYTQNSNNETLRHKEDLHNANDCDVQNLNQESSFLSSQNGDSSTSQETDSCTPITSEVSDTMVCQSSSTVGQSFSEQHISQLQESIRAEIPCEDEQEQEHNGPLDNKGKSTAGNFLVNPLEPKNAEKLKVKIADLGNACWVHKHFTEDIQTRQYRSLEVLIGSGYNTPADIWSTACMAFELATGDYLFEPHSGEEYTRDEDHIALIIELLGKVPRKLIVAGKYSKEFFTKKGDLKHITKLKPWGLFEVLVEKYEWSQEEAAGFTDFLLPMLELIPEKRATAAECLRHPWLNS

Compound: NS(=O)(=O)c1ccc(-c2ccc(/C=C3\C(=O)Nc4ccccc43)o2)cc1
kinase still bound, per cent of control [3]: 24% | kinase still bound, per cent of control (SRPK3 (human)): 26% | kinase still bound, per cent of control (PIM3 (human)): 28% | kinase still bound, per cent of control (STK17A (human)): 12% | kinase still bound, per cent of control (RIOK1 (human)): 11% | kinase still bound, per cent of control (CLK2 (human)): 25% | kinase still bound, per cent of control (SRPK1 (human)): 12% | kinase still bound, per cent of control (AAK1 (human)): 23% | kinase still bound, per cent of control (MYLK4 (human)): 3.1% | kinase still bound, per cent of control (BMP2K (human)): 7.7% | kinase still bound, per cent of control (RIOK3 (human)): 6.2%

Compound: NS(=O)(=O)c1ccc(-c2ccc(/C=C3\C(=O)Nc4cccc(Br)c43)o2)cc1
kinase still bound, per cent of control (MKNK2 (human)): 34% | kinase still bound, per cent of control (RIOK1 (human)): 15% | kinase still bound, per cent of control (SRPK1 (human)): 16% | kinase still bound, per cent of control (MYLK4 (human)): 1.8% | kinase still bound, per cent of control (TTK (human) [2]): 28% | kinase still bound, per cent of control (BMP2K (human)): 34% | kinase still bound, per cent of control (RIOK3 (human)): 17%

Compound: CCOc1cc(N2CCC(O)CC2)ccc1Nc1ncc2c(n1)N(C1CCCC1)CCC(=O)N2
IC50 (TTK (human) [1]): 7450 nM | Kd (TTK (human) [2]): 650 nM

Compound: CCN1C(=O)CCN(C2CCCC2)c2nc(Nc3ccc(N4CCC(O)CC4)cc3OC(C)C)ncc21
IC50 (TTK (human) [1]): 1090 nM | kinase still bound, per cent of control (PLK1 (human)): 4.1% | kinase still bound, per cent of control (RPS6KA2 KD2 (human)): 12% | Kd (TTK (human) [2]): 253 nM | kinase still bound, per cent of control (TTK (human) [2]): 1.9%

Compound: CC[C@@H]1C(=O)N(C)c2cnc(Nc3ccc(N(C)CCCO)cc3OC)nc2N1C1CCCC1
IC50 (TTK (human) [1]): > 10000 nM | Kd (TTK (human) [2]): 3100 nM

The remaining lines, values ahead:

IC50 (TTK (human) [1]): > 10000 nM | Kd (TTK (human) [2]): 1410 nM
Compound: CC[C@@H]1C(=O)N(C)c2cnc(Nc3ccc(N4CCC(O)CC4)cc3OC)nc2N1C1CCCC1

IC50 (PIM1 (human)): 905 nM | IC50 (PIM2 (human)): 509 nM | IC50 (TTK (human) [1]): 145 nM
Compound: O=C1NC(=S)S/C1=C\c1ccc(-c2cccc3cc[nH]c23)o1

IC50 (TTK (human) [1]): > 10000 nM | Kd (TTK (human) [2]): 4700 nM
Compound: CC[C@@H]1C(=O)N(C)c2cnc(Nc3ccc(N(C)CCO)cc3OC)nc2N1C1CCCC1

IC50 (TTK (human) [1]): 640 nM | kinase still bound, per cent of control (PLK1 (human)): 1.7% | kinase still bound, per cent of control (TNK1 (human)): 31% | kinase still bound, per cent of control (PTK2B (human)): 29% | kinase still bound, per cent of control (PLK4 (human)): 12% | kinase still bound, per cent of control (STK33 (human)): 11% | kinase still bound, per cent of control (GAK (human)): 1.9% | kinase still bound, per cent of control (PLK3 (human)): 0% | Kd (TTK (human) [2]): 58.8 nM | kinase still bound, per cent of control (TTK (human) [2]): 2.6% | kinase still bound, per cent of control (PTK2 (human)): 16%
Compound: COc1cc(N(C)CCCO)ccc1Nc1ncc2c(n1)N(C1CCCC1)CCC(=O)N2C

kinase still bound, per cent of control (PLK1 (human)): 25% | kinase still bound, per cent of control (TNK1 (human)): 3.8% | kinase still bound, per cent of control [4]: 22% | kinase still bound, per cent of control (DCLK2 (human)): 1.2% | kinase still bound, per cent of control (PLK4 (human)): 0.15% | kinase still bound, per cent of control (MAPK7 (human)): 0% | kinase still bound, per cent of control (ALK (human)): 14% | kinase still bound, per cent of control (TNK2 (human)): 27% | kinase still bound, per cent of control (FRK (human)): 31% | kinase still bound, per cent of control (DCLK1 (human)): 1.2% | kinase still bound, per cent of control (ROS1 (human)): 9.2% | kinase still bound, per cent of control (TTK (human) [2]): 8% | kinase still bound, per cent of control (ULK2 (human)): 25% | kinase still bound, per cent of control (PTK2 (human)): 18%
Compound: COc1cc(N2CCN(C)CC2)ccc1Nc1ncc2c(n1)N(C(C)C)c1ccccc1C(=O)N2C

IC50 (TTK (human) [1]): > 10000 nM | Kd (TTK (human) [2]): 2650 nM
Compound: CC[C@@H]1C(=O)N(C)c2cnc(Nc3ccc(N4CCCC(O)C4)cc3OC)nc2N1C1CCCC1 (stereo partly specified)
